Results on 10 compounds are retold here after patent US4988733A, “N-[1-(3-phenoxyphenyl)ethyl]acetohydroxamic acid compounds which are useful anti-inflammatory agents” (Burroughs Wellcome Co., priority 1987, dated 1991).

The target of one series is T1, 5-lipoxygenase (5-LO) (Homo sapiens, UniProt P09917).
T1 construct: The leukocytes were homogenised and 5 μM arachidonic acid added; from tissue; host or cells: homogenised blood leukocytes of normal aspirin-free volunteers
T1 sequence (P09917 1-674): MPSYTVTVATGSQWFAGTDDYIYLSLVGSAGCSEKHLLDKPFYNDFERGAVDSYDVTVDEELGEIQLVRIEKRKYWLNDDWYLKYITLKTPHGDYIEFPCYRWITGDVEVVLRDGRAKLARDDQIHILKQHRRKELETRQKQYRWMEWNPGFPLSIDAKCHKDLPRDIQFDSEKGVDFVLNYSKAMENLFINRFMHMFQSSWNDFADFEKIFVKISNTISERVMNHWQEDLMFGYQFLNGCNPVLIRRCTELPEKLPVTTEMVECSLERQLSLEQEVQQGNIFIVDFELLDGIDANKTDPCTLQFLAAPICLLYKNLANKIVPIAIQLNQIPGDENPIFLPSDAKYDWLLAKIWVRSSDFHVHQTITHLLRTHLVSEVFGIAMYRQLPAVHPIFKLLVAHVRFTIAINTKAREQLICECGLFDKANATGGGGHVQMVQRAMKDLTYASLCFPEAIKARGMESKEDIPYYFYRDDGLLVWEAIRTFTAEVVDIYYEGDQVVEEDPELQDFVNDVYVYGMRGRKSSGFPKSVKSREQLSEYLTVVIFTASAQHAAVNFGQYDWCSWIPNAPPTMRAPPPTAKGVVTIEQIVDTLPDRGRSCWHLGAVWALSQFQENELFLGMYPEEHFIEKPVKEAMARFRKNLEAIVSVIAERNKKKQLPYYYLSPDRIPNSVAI
Nature of the series: In vitro inhibition of 5-lipoxygenase in homogenised leukocytes (LTB4 radioimmunoassay). Type of series: biochemical. The following applies: homogenised leukocytes of aspirin-free volunteers, 5 μM arachidonic acid, 37° C., 5 minutes. The procedure:
(§1) C. In vitro inhibition of 5-lipoxygenase (5-LO) and cyclo-oxygenase (CO) Blood from normal aspirin-free volunteers was centrifuged to separate leukocytes from red cells and platelets. The leukocytes were homogenised and 5 μM arachidonic acid added, followed by incubation at 37° C. for 5 minutes. The reaction was stopped by boiling and radioimmunoassays conducted for LTB4 and TXB2. Results were calculated as IC50 (μM) activity against each enzyme.

Series [1] can be described thus: Plasma concentration after administration to rabbits of 10 mg/kg PO. It counts as in vivo. The following applies: rabbit; for Cmax: read-out: Maximum plasma concentration; for half-life: read-out: time for plasma concentration to fall to 50% of maximum value obtained after administration (converted). The procedure:
A. Maximum plasma concentration obtained after administration to rabbits of 10 mg/kg PO and time for plasma concentration to fall to 50% of maximum value obtained after administration

Series [2] has as its system stimulated LTB4 synthesis. Nature of the series: Stimulated LTB4 synthesis ex vivo after administration to rabbits of 10 mg/kg PO. It counts as in vivo. The protocol:
B. Time for stimulated LTB4 synthesis ex vivo to return to 50% of original value after administration to rabbits of 10 mg/kg PO

The next series addresses T2, cyclo-oxygenase (CO) (Homo sapiens, UniProt P23219).
T2 construct: The leukocytes were homogenised and 5 μM arachidonic acid added; from tissue; host or cells: homogenised blood leukocytes of normal aspirin-free volunteers
Nature of the series: In vitro inhibition of cyclo-oxygenase in homogenised leukocytes (TXB2 radioimmunoassay). Type of series: biochemical. As to conditions: homogenised leukocytes of aspirin-free volunteers, 5 μM arachidonic acid, 37° C., 5 minutes. The protocol: as §1

Several values for one entry are separate records, joined by “and”; a condition that tells them apart may be missing. Equal entries are not always repeated. Where only a bound is given, the exact number is not on record here.

T2 sequence (P23219 24-599): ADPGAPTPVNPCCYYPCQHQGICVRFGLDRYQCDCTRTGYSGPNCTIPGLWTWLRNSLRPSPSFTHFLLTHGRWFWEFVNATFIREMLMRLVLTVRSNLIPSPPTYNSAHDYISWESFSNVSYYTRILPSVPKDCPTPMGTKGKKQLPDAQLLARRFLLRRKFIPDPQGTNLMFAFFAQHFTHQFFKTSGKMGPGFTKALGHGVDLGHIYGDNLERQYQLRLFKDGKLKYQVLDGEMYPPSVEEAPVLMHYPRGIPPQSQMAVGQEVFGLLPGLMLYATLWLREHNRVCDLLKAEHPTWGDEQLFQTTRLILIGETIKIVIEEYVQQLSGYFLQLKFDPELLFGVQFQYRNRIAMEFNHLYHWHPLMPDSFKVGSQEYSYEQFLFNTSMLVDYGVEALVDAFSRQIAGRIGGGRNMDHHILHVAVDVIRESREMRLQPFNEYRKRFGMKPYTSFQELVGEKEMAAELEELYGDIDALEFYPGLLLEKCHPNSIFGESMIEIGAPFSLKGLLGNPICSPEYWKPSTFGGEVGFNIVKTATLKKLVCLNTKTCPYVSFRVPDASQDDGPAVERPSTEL

As usually defined, the IC50 is the concentration that inhibits the measured activity by half. Low values mean greater potency, high ones weaker potency. `CC(=O)N(O)C(C)/C=C/c1cccc(Oc2ccc(C(C)(C)C)cc2)c1` (stereo not drawn) [(E)-N-{1-Methyl-3-[3-(4-t-butylphenoxy)phenyl]prop-2-enyl}acetohydroxamic acid] displayed an IC50 on 5-lipoxygenase (5-LO) of 500 nM. In series [1], the Cmax worked out at 160 ng/mL and the half-life was greater than 24 h. Moreover, the “Time for stimulated LTB4 synthesis ex vivo to return to 50% of original value” (from here on “Time … to 50% of original value”) in series [2] is reported as 2.4 h.

On 5-lipoxygenase (5-LO), `CC(=O)N(O)C(C)/C=C/c1cccc(Oc2cccc(C(F)(F)F)c2)c1` (stereo not drawn) [(E)-N-{1-Methyl-3-[3-(3-trifluoromethylphenoxy)phenyl]prop-2-enyl}acetohydroxamic acid] had an IC50 of 110 nM. Also, the IC50 against cyclo-oxygenase (CO) is greater than 1000 nM. Further, in series [1], the Cmax was 840 ng/mL and the half-life was greater than 24 h. For the same compound, the “Time … to 50% of original value” in series [2] was greater than 24 h.

Turning to `CC(=O)N(O)C(C)/C=C/c1cccc(Oc2ccc(F)cc2)c1` (stereo not drawn) [(E)-N-{1-methyl-3-[3-(4-fluorophenoxy)phenyl]prop-2-enyl}acetohydroxamic acid], on 5-lipoxygenase (5-LO), the IC50 was 200 nM and 300 nM. In addition, in series [1], the Cmax worked out at 1070 ng/mL and the half-life is 11.3 h. In addition, in series [2], the “Time … to 50% of original value” amounted to 24.0 h.

On 5-lipoxygenase (5-LO), `CC(=O)N(O)C(C)/C=C/c1cccc(Oc2cc(Cl)cc(Cl)c2)c1` (stereo not drawn) [(E)-N-{1-Methyl-3-[3-(3,5-dichlorophenoxy)phenyl]prop-2-enyl}acetohydroxamic acid] yielded an IC50 of 400 nM. In series [1], the Cmax turned out to be 1900 ng/mL and the half-life is greater than 24 h. The “Time … to 50% of original value” in series [2] was greater than 24 h.

In turn, `CC(=O)N(O)C(C)/C=C/c1cccc(Oc2ccc(Cl)cc2)c1` (stereo not drawn) [(E)-N-{1-methyl-3-[3-(4-chlorophenoxy)phenyl]prop-2-enyl}acetohydroxamic acid] had an IC50 against 5-lipoxygenase (5-LO) of 80 nM. Moreover, the IC50 against cyclo-oxygenase (CO) was greater than 1000 nM. Moreover, in series [1], the Cmax amounted to 930 ng/mL and the half-life is greater than 24 h. The “Time … to 50% of original value” in series [2] is on record as greater than 24 h.

`CC(=O)N(O)C(C)/C=C/c1cccc(Oc2ccc(C)cc2)c1` (stereo not drawn) [(E)-N-{1-Methyl-3-[3-(4-methylphenoxy)phenyl]prop-2-enyl}acetohydroxamic acid]: in series [1], the Cmax came to 70 ng/mL and the half-life is 4.3 h.

`CC(=O)N(O)C(C)/C=C/c1cccc(Oc2ccccc2)c1` (stereo not drawn) [(E)-N-[1-methyl-3-(3-phenoxyphenyl)prop-2-enyl]acetohydroxamic acid] gave an IC50 against 5-lipoxygenase (5-LO) of 80 nM. The same compound yielded an IC50 against cyclo-oxygenase (CO) of 1000 nM. Moreover, in series [1], the Cmax came to 460 ng/mL and the half-life is 10.7 h. The “Time … to 50% of original value” in series [2] is 22.6 h.

On to `CC(=O)N(O)C(C)/C=C/c1cccc(Oc2ccc(F)cc2F)c1` (stereo not drawn) [(E)-N-{1-Methyl-3-[3-(2,4-difluorophenoxy)phenyl]prop-2-enyl}acetohydroxamic acid], for which the “Time … to 50% of original value” in series [2] is on record as 20.7 h.

`CC(=O)N(O)C/C=C/c1cccc(Oc2ccccc2)c1` [(E)-N-[3-(3-phenoxyphenyl)prop-2-enyl]acetohydroxamic acid, reference compound] registered an IC50 against cyclo-oxygenase (CO) of 1000 nM.

`CC(=O)N(O)C(C)/C=C/c1cccc(Oc2ccc(Br)cc2)c1` (stereo not drawn) [(E)-N-{1-Methyl-3-[3-(4-bromophenoxy)phenyl]prop-2-enyl}acetohydroxamic acid] registered an IC50 against 5-lipoxygenase (5-LO) of 10 nM. At cyclo-oxygenase (CO), this compound yielded an IC50 of 180 nM. Moreover, in series [1], the Cmax amounted to 710 ng/mL and the half-life is greater than 24 h. Further, the “Time … to 50% of original value” in series [2] is recorded as greater than 24 h.
